Source: the NIST ThermoML archive (doi:10.1021/je100875a)

Assay: mn = molality of the nth substance listed, in mol/kg
Conditions: 101 kPa, Liquid

O=[N+]([O-])[O-].O=[N+]([O-])[O-].O=[N+]([O-])[O-].[Ce+3] [cerium nitrate] + O
mass density [kg/m3]
Conditions | m1 = 0.5112 | m1 = 1.031 | m1 = 1.555 | m1 = 1.997 | m1 = 3.131 | m1 = 3.968 | m1 = 4.462
293.15 K | 1131.2 | 1252.8 | 1361.9 | 1446.2 | 1633.2 | 1746.4 | 1806
298.15 K | 1129.3 | 1250.2 | 1358.8 | 1443.1 | 1629.1 | 1742.4 | 1801.8
308.15 K | 1124.7 | 1244.4 | 1352 | 1435.7 | 1620.5 | 1733.1 | 1792.2

O=[N+]([O-])[O-].O=[N+]([O-])[O-].O=[N+]([O-])[O-].[La+3] [lanthanum(III) nitrate] + O
mass density [kg/m3]
Conditions | m1 = 0.4953 | m1 = 0.9893 | m1 = 1.48 | m1 = 1.97 | m1 = 2.93 | m1 = 3.9 | m1 = 4.385
293.15 K | 1125.6 | 1240.6 | 1343.1 | 1436.9 | 1595.8 | 1729.3 | 1787.9
298.15 K | 1123.8 | 1238.1 | 1340.1 | 1433.6 | 1591.8 | 1725.3 | 1783.8
308.15 K | 1119.2 | 1231.6 | 1333.5 | 1426.3 | 1583.4 | 1716.3 | 1774.6

O=[N+]([O-])[O-].O=[N+]([O-])[O-].O=[N+]([O-])[O-].[Nd+3] [neodymium(III) nitrate] + O
mass density [kg/m3]
Conditions | m1 = 0.522 | m1 = 1.021 | m1 = 1.555 | m1 = 2.093 | m1 = 3.086 | m1 = 4.124 | m1 = 4.297
566.3 K | 1136.1 | 1255.1 | 1369.8 | 1474.7 | 1642.1 | 1785.9 | 1807
571.3 K | 1134.2 | 1252.5 | 1366.7 | 1471.1 | 1637.8 | 1781.1 | 1802.7
581.3 K | 1129.6 | 1246.7 | 1359.9 | 1463.5 | 1628.8 | 1771.4 | 1792.8

O=[N+]([O-])[O-].O=[N+]([O-])[O-].O=[N+]([O-])[O-].[Y+3] [yttrium nitrate] + O
mass density [kg/m3]
Conditions | 293.15 K | 298.15 K | 308.15 K
m1 = 0.2775 | – | 1057.4 | –
m1 = 0.3213 | – | 1066.6 | –
m1 = 0.3706 | – | 1076.9 | –
m1 = 0.4172 | – | 1086.5 | –
m1 = 0.4989 | 1105.5 | 1103.5 | 1099.2
m1 = 0.9965 | 1202.6 | 1200.2 | 1194.7
m1 = 1.497 | 1290.8 | 1287.8 | 1281.4
m1 = 1.982 | 1368.7 | 1365.4 | 1358.2
m1 = 2.947 | 1502.8 | 1498.9 | 1490.5
m1 = 3.945 | 1615.7 | 1611.4 | 1602.2
m1 = 4.957 | 1708.9 | 1704.3 | 1694.7
